We go through 14 compounds from patent US20070179060A1, “6-(Poly-substituted aryl)-4-aminopicolinates and their use as herbicides” (priority 2006, published 2007).

The test system of data set [1] is lambsquarter (Chenopodium album). The data set is described as follows: Postemergence herbicidal activity. Format: in vivo. The following applies: Chenopodium album, post-emergence, 336 h, post-emergent, 140 g ai/ha, after 14 days; read-out: % Control CHEAL. In outline:
(§1)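 Compounds were applied postemergence by track sprayer delivering 187 L/ha, using a mixed organic/aqueous carrier containing crop oil concentrate and surfactant; solvent-blank sprays served as controls. Test plants were at the first to second true leaf stage after 7-21 days' greenhouse growth, were sub-irrigated after treatment, and were evaluated by probit analysis.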

The subject of data set [2] is redroot pigweed (Amaranthus retroflexus). The data set is described as follows: Postemergence herbicidal activity. The class given is in vivo. The following applies: Amaranthus retroflexus, post-emergence, 336 h, post-emergent, 140 g ai/ha, after 14 days; read-out: % Control AMARE. The essentials:
as §1

Data set [3] has as its system velvetleaf (Abutilon theophrasti). The data set is described as follows: Postemergence herbicidal activity. The class given is in vivo. The following applies: Abutilon theophrasti, post-emergence, 336 h, post-emergent, 140 g ai/ha, after 14 days; read-out: % Control ABUTH. In outline:
as §1

Data set [4] has as its system lambsquarter (Chenopodium album). The data set is described as follows: Preemergence herbicidal activity. The class given is in vivo. The following applies: Chenopodium album, pre-emergence, 480 h, pre-emergent, after 20-22 days, read-out: % Control CHEAL; for pest or weed control at 140 g/ha: 140 g ai/ha. An excerpt: (§2) Seeds of the desired test plant species were planted in a soil matrix prepared by mixing a loam soil (43 percent silt, 19 percent clay, and 38 percent sand, with a pH of about 8.1 and an organic matter content of about 1.5 percent) and sand in a 70 to 30 ratio. The soil matrix was contained in plastic pots with a surface area of 113 square centimeters. When required to ensure good germination and healthy plants, a fungicide treatment and/or other chemical or physical treatment was applied. […] Compound requirements are based upon a 12 mL application volume at a rate of 187 L/ha. Formulated compounds were applied to the plant material with an overhead Mandel track sprayer equipped with a […] nozzles calibrated to deliver 187 L/ha over an application area of 0.503 square meters at a spray height of 18 inches (43 cm) above the soil surface. Control plants were sprayed in the same manner with the solvent blank. The treated pots and control pots were placed in a greenhouse maintained with an approximate 15 hour photoperiod and temperatures of about 23-29° C. during the day and 22-28° C. during the night. Nutrients and water were added on a regular basis and supplemental lighting was provided with overhead metal halide 1000-watt lamps as necessary. The water was added by top-irrigation.

Data set [5] has as its system redroot pigweed (Amaranthus retroflexus). Kind of data set: Preemergence herbicidal activity. The following applies: Amaranthus retroflexus, pre-emergence, 480 h, pre-emergent, after 20-22 days, read-out: % Control AMARE; for pest or weed control at 140 g/ha: 140 g ai/ha. Format: in vivo.
Description: as §2

Data set [6] relates to velvetleaf (Abutilon theophrasti). The data set is described as follows: Preemergence herbicidal activity. The class given is in vivo. The following applies: Abutilon theophrasti, pre-emergence, 480 h, pre-emergent, after 20-22 days, read-out: % Control ABUTH; for pest or weed control at 140 g/ha: 140 g ai/ha.
Description: as §2

As usually defined, the melting point is the temperature of the solid-liquid transition. Consider `COCc1c(Cl)ccc(-c2cc(N)c(Cl)c(C(=O)O)n2)c1F` [Compound 105, 4-Amino-3-chloro-6-(4-chloro-2-fluoro-3-methoxymethylphenyl)pyridine-2-carboxylic acid], for which the melting point is 187 to 188 °C (dec.). For the same compound, the pest or weed control at 140 g/ha in data set [1] was 85%. Also, the pest or weed control at 140 g/ha in data set [2] was 98%. For the same compound, the pest or weed control at 140 g/ha in data set [3] was 95%. Also, the pest or weed control at 140 g/ha in data set [4] is 95%. Also, the pest or weed control at 140 g/ha in data set [5] stood at 100%. Moreover, the pest or weed control at 140 g/ha in data set [6] came out at 100%.
Take `CCN(CC)c1c(Cl)ccc(-c2cc(N)c(Cl)c(C(=O)O)n2)c1F` [Compound 116, 4-Amino-3-chloro-6-[4-chloro-3-(diethylamino)-2-fluorophenyl]pyridine-2-carboxylic acid]: the melting point was in the range of 174 to 175 °C. Moreover, the pest or weed control at 140 g/ha in data set [1] is 100%. In addition, the pest or weed control at 140 g/ha in data set [2] amounted to 90%. The pest or weed control at 140 g/ha in data set [3] was 80%. In addition, the pest or weed control at 140 g/ha in data set [4] is 75%. Moreover, the pest or weed control at 140 g/ha in data set [5] is 100%. Further, in data set [6], the pest or weed control at 140 g/ha is 100%.
`Cc1c(Cl)ccc(-c2cc(N)c(Cl)c(C(=O)O)n2)c1F` [Compound 99, 4-Amino-3-chloro-6-(4-chloro-2-fluoro-3-methylphenyl)pyridine-2-carboxylic acid]: the melting point is 179 to 181 °C (dec.). The pest or weed control at 140 g/ha in data set [1] was determined as 90%. Moreover, in data set [2], the pest or weed control at 140 g/ha came to 90%. Further, the pest or weed control at 140 g/ha in data set [3] worked out at 80%. Further, in data set [4], the pest or weed control at 140 g/ha turned out to be 95%. Further, the pest or weed control at 140 g/ha in data set [5] is 100%. Besides, the pest or weed control at 140 g/ha in data set [6] was found to be 100%.
`Nc1c(F)c(-c2ccc3c(c2F)OCO3)nc(C(=O)O)c1Cl` [Compound 115, 4-Amino-3-chloro-5-fluoro-6-(2-fluoro-3,4-methylenedioxyphenyl)pyridine-2-carboxylic acid] returned a melting point of 179 to 180 °C. In addition, the pest or weed control at 140 g/ha in data set [1] amounted to 100%. In addition, the pest or weed control at 140 g/ha in data set [2] is 100%. Also, the pest or weed control at 140 g/ha in data set [3] was 100%. In addition, the pest or weed control at 140 g/ha in data set [4] is 100%. Also, the pest or weed control at 140 g/ha in data set [5] came to 100%. Moreover, the pest or weed control at 140 g/ha in data set [6] amounted to 100%.
`COC(=O)c1nc(-c2ccc(Cl)c(OCC(F)F)c2Cl)cc(N)c1Cl` [Compound 10, 4-Amino-3-chloro-6-[2,4-dichloro-3-(2,2-difluoroethoxy)phenyl]pyridine-2-carboxylic acid methyl ester] yielded a melting point of 113 to 115 °C. Moreover, the pest or weed control at 140 g/ha in data set [1] worked out at 100%. In addition, the pest or weed control at 140 g/ha in data set [2] is 100%. Besides, the pest or weed control at 140 g/ha in data set [3] was 90%. Further, in data set [4] (280 g ai/ha), the pest or weed control at 280 g/ha turned out to be 80%. In data set [5] (280 g ai/ha), the pest or weed control at 280 g/ha was found to be 50%. Further, the pest or weed control at 280 g/ha in data set [6] (280 g ai/ha) was 40%.
Take `COC(=O)c1nc(-c2ccc3c(c2F)OCO3)c(F)c(N)c1Cl` [Compound 12, 4-Amino-3-chloro-5-fluoro-6-(2-fluoro-3,4-methylenedioxyphenyl)pyridine-2-carboxylic acid methyl ester]: the melting point was in the range of 151 to 152 °C. Further, the pest or weed control at 140 g/ha in data set [1] was found to be 100%. For the same compound, the pest or weed control at 140 g/ha in data set [2] stood at 100%. For the same compound, the pest or weed control at 140 g/ha in data set [3] amounted to 100%. In data set [4], the pest or weed control at 140 g/ha amounted to 100%. Further, the pest or weed control at 140 g/ha in data set [5] was found to be 100%. In addition, the pest or weed control at 140 g/ha in data set [6] was found to be 100%.
Turning to `COc1c(Br)ccc(-c2cc(N)c(Cl)c(C(=O)O)n2)c1Cl` [Compound 121, 4-Amino-6-(4-bromo-2-chloro-3-methoxyphenyl)-3-chloropyridine-2-carboxylic acid], the melting point was in the range of 192 to 193 °C. The pest or weed control at 140 g/ha in data set [1] worked out at 90%. In addition, the pest or weed control at 140 g/ha in data set [2] is 95%. Further, the pest or weed control at 140 g/ha in data set [3] came out at 100%. For the same compound, in data set [4], the pest or weed control at 140 g/ha came to 100%. Moreover, the pest or weed control at 140 g/ha in data set [5] turned out to be 100%. The pest or weed control at 140 g/ha in data set [6] was determined as 100%.
`Nc1cc(-c2ccc3c(c2F)OCO3)nc(C(=O)O)c1Cl` [Compound 108, 4-Amino-3-chloro-6-(2-fluoro-3,4-methylenedioxyphenyl)pyridine-2-carboxylic acid]: the melting point is 202 to 203 °C (dec.). Further, the pest or weed control at 140 g/ha in data set [1] worked out at 95%. Further, in data set [2], the pest or weed control at 140 g/ha is 100%. Besides, the pest or weed control at 140 g/ha in data set [3] is 100%. In addition, the pest or weed control at 140 g/ha in data set [4] is 90%. For the same compound, the pest or weed control at 140 g/ha in data set [5] was found to be 100%. Also, the pest or weed control at 140 g/ha in data set [6] was 90%.
With `COC(=O)c1nc(-c2ccc(Cl)c(C)c2F)cc(N)c1Cl` [Compound 49, 4-Amino-3-chloro-6-(4-chloro-2-fluoro-3-methylphenyl)pyridine-2-carboxylic acid methyl ester], the melting point lay within 116 to 118 °C. For the same compound, in data set [1], the pest or weed control at 140 g/ha was 90%. In addition, the pest or weed control at 140 g/ha in data set [2] came out at 80%. Moreover, the pest or weed control at 140 g/ha in data set [3] turned out to be 100%. In addition, the pest or weed control at 140 g/ha in data set [4] amounted to 99%. Besides, in data set [5], the pest or weed control at 140 g/ha was determined as 100%. In addition, the pest or weed control at 140 g/ha in data set [6] turned out to be 100%.
Consider `CCOc1c(Cl)ccc(-c2cc(N)c(Cl)c(C(=O)O)n2)c1F` [Compound 102, 4-Amino-3-chloro-6-(4-chloro-2-fluoro-3-ethoxyphenyl)pyridine-2-carboxylic acid], for which the melting point is 177 to 178 °C (dec.). Also, the pest or weed control at 140 g/ha in data set [1] was found to be 95%. Further, the pest or weed control at 140 g/ha in data set [2] came to 85%. The pest or weed control at 140 g/ha in data set [3] amounted to 80%. The pest or weed control at 140 g/ha in data set [4] was 0%. In data set [5], the pest or weed control at 140 g/ha was 95%. The pest or weed control at 140 g/ha in data set [6] worked out at 85%.
Compound `COC(=O)c1nc(-c2cc(OC)c(Cl)cc2F)c(F)c(N)c1Cl` [Compound 15, 4-Amino-3-chloro-5-fluoro-6-(4-chloro-2-fluoro-5-methoxyphenyl)pyridine-2-carboxylic acid methyl ester] returned a melting point of 168 to 169 °C. In addition, the pest or weed control at 140 g/ha in data set [1] is 100%. In data set [2], the pest or weed control at 140 g/ha came to 100%. The pest or weed control at 140 g/ha in data set [3] is 100%. Further, in data set [4], the pest or weed control at 140 g/ha is 100%. Besides, in data set [5], the pest or weed control at 140 g/ha was 100%. In data set [6], the pest or weed control at 140 g/ha was found to be 60%.
For `COc1c(Cl)ccc(-c2cc(N)c(Cl)c(C(=O)O)n2)c1Cl` [Compound 110, 4-Amino-3-chloro-6-(2,4-dichloro-3-methoxyphenyl)pyridine-2-carboxylic acid], the melting point is 187 to 188 °C (dec.). Moreover, the pest or weed control at 140 g/ha in data set [1] worked out at 85%. In addition, the pest or weed control at 140 g/ha in data set [2] turned out to be 90%. The pest or weed control at 140 g/ha in data set [3] was 80%. Also, in data set [4], the pest or weed control at 140 g/ha came to 40%. For the same compound, the pest or weed control at 140 g/ha in data set [5] was determined as 40%. Besides, the pest or weed control at 140 g/ha in data set [6] is 100%.
On to `CN(C)c1c(Cl)cc(F)c(-c2cc(N)c(Cl)c(C(=O)O)n2)c1F` [Compound 94, 4-Amino-3-chloro-6-(4-chloro-2,6-difluoro-3-dimethylaminophenyl)pyridine-2-carboxylic acid], for which the melting point was 171 to 172 °C. For the same compound, the pest or weed control at 140 g/ha in data set [1] was 100%. In data set [2], the pest or weed control at 140 g/ha was 100%. In data set [3], the pest or weed control at 140 g/ha turned out to be 100%. Also, the pest or weed control at 140 g/ha in data set [4] amounted to 100%. Further, the pest or weed control at 140 g/ha in data set [5] amounted to 100%. Also, the pest or weed control at 140 g/ha in data set [6] was determined as 100%.
Take `COCCOc1c(Cl)ccc(-c2cc(N)c(Cl)c(C(=O)O)n2)c1F` [Compound 113, 4-Amino-3-chloro-6-(4-chloro-2-fluoro-3-methoxyethoxyphenyl)pyridine-2-carboxylic acid]: the melting point was 169 to 170 °C (dec.). Moreover, the pest or weed control at 140 g/ha in data set [4] was found to be 55%. In addition, in data set [5], the pest or weed control at 140 g/ha was determined as 0%. Moreover, in data set [6], the pest or weed control at 140 g/ha came out at 0%.
